According to ChEMBL document CHEMBL3217468 (Medchemcomm, 2012):
Values after ≈ are worked out from the molar mass of the structure shown. Blank lines part the entries; values can stand above or below the compound they belong to.

Tests used:
Streptococcus agalactiae = test: Antibacterial activity against wild type Streptococcus agalactiae by CLSI broth microdilution method; type: functional
Staphylococcus aureus [1] = test: Antibacterial activity against wild type Staphylococcus aureus by CLSI broth microdilution method; type: functional
Escherichia coli [2] = test: Antibacterial activity against wild type Escherichia coli by CLSI broth microdilution method; type: functional
Staphylococcus aureus [3] = test: Antibacterial activity against Staphylococcus aureus harboring mutant SPase by CLSI broth microdilution method; type: functional
[4] = system: Staphylococcus epidermidis; test: Antibacterial activity against Staphylococcus epidermidis harboring mutant SPase by CLSI broth microdilution method; type: functional
[5] = system: Staphylococcus epidermidis; test: Antibacterial activity against wild type Staphylococcus epidermidis by CLSI broth microdilution method; type: functional
Pseudomonas aeruginosa [6] = test: Antibacterial activity against wild type Pseudomonas aeruginosa by CLSI broth microdilution method; type: functional
Streptococcus pneumoniae [7] = test: Antibacterial activity against wild type Streptococcus pneumoniae by CLSI broth microdilution method; type: functional
Pseudomonas aeruginosa [8] = test: Antibacterial activity against Pseudomonas aeruginosa harboring mutant SPase by CLSI broth microdilution method; type: functional
Escherichia coli [9] = test: Antibacterial activity against Escherichia coli harboring mutant SPase by CLSI broth microdilution method; type: functional
[10] = system: Staphylococcus epidermidis; test: Antibacterial activity against Staphylococcus epidermidis harboring SPase S29P mutant gene by modified CLSI microbroth dilution method; type: functional
Prescottella equi = test: Antibacterial activity against Rhodococcus equi harboring SPase with valine or isoleucine residue at position 29 by modified CLSI microbroth dilution method; type: functional; conditions: Rhodococcus (subgen. Prescottella) equi
Staphylococcus aureus [11] = test: Antibacterial activity against Staphylococcus aureus harboring SPase P29S mutant gene by modified CLSI microbroth dilution method; type: functional
[12] = system: Staphylococcus epidermidis; test: Antibacterial activity against Staphylococcus epidermidis harboring SPase with serine residue at position 29 by modified CLSI microbroth dilution method; type: functional
[13] = system: Staphylococcus epidermidis; test: Antibacterial activity against Staphylococcus epidermidis harboring wild type SPase by modified CLSI microbroth dilution method; type: functional
Streptococcus pneumoniae [14] = test: Antibacterial activity against Streptococcus pneumoniae harboring SPase with aspargine residue at position 29 by modified CLSI microbroth dilution method; type: functional
Escherichia coli [15] = test: Antibacterial activity against Escherichia coli harboring wild type SPase by modified CLSI microbroth dilution method; type: functional
[16] = system: Staphylococcus epidermidis; test: Antibacterial activity against Staphylococcus epidermidis assessed as growth inhibition; type: functional
Chlamydia trachomatis = test: Antibacterial activity against Chlamydia trachomatis harboring SPase with leucine residue at position 29 by modified CLSI microbroth dilution method; type: functional
Lactococcus lactis = test: Antibacterial activity against Lactococcus lactis harboring SPase with leucine residue at position 29 by modified CLSI microbroth dilution method; type: functional
[17] = system: Corynebacterium glutamicum; test: Antibacterial activity against Corynebacterium glutamicum harboring SPase with methionine residue at position 29 by modified CLSI microbroth dilution method; type: functional
[18] = system: Staphylococcus haemolyticus; test: Antibacterial activity against Staphylococcus haemolyticus harboring SPase with serine residue at position 29 by modified CLSI microbroth dilution method; type: functional
Helicobacter pylori = test: Antibacterial activity against Helicobacter pylori harboring SPase with alanine residue at position 29 by modified CLSI microbroth dilution method; type: functional
Escherichia coli [19] = test: Antibacterial activity against Escherichia coli harboring SPase P84S mutant gene by modified CLSI microbroth dilution method; type: functional
[20] = Binding affinity to Escherichia coli delta 2 to 75 truncated type 1 signal peptidase by fluorescence analysis
Pseudomonas aeruginosa [21] = test: Antibacterial activity against Pseudomonas aeruginosa harboring wild type SPase by modified CLSI microbroth dilution method; type: functional
Rhodococcus opacus = test: Antibacterial activity against Rhodococcus opacus harboring SPase with valine residue at position 29 by modified CLSI microbroth dilution method; type: functional
Staphylococcus aureus [22] = test: Antibacterial activity against Staphylococcus aureus harboring wild type SPase by modified CLSI microbroth dilution method; type: functional
Pseudomonas aeruginosa [23] = test: Antibacterial activity against Pseudomonas aeruginosa harboring SPase P84S mutant gene by modified CLSI microbroth dilution method; type: functional
Streptococcus pyogenes = test: Antibacterial activity against Streptococcus pyogenes harboring SPase with alanine residue at position 29 by modified CLSI microbroth dilution method; type: functional

SMILES: CCCCCCCCCCCCCCCC(=O)N(C)[C@H](CO)C(=O)N[C@H](C)C(=O)NCC(=O)N(C)[C@@H]1C(=O)N[C@@H](C)C(=O)N[C@H](C(=O)O)Cc2cc(c(O)c([N+](=O)[O-])c2)-c2cc1ccc2O
MIC (Streptococcus agalactiae): 8 µg/mL (≈ 8.64 µM)
MIC (Staphylococcus aureus [1]): > 64 µg/mL
MIC (Escherichia coli [2]): > 64 µg/mL
MIC (Staphylococcus aureus [3]): 4 µg/mL (≈ 4.32 µM)
MIC [4]: 8 µg/mL (≈ 8.64 µM)
MIC [5]: 0.25 µg/mL (≈ 0.27 µM)
MIC (Pseudomonas aeruginosa [6]): > 64 µg/mL
MIC (Streptococcus pneumoniae [7]): 16 µg/mL (≈ 17.3 µM)
MIC (Pseudomonas aeruginosa [8]): 8 µg/mL (≈ 8.64 µM)
MIC (Escherichia coli [9]): 2 µg/mL (≈ 2.16 µM)

SMILES: CCCCCCCCCCCCCCCC(=O)N(C)[C@H](CO)C(=O)N[C@H](C)C(=O)NCC(=O)N(C)[C@@H]1C(=O)N[C@@H](C)C(=O)N[C@H](C(=O)O)Cc2ccc(O)c(c2)-c2cc1ccc2O [ARYLOMYCIN C16]
MIC (Streptococcus agalactiae): > 64 µg/mL
MIC (Staphylococcus aureus [1]): > 64 µg/mL
MIC (Escherichia coli [2]): > 64 µg/mL
MIC [10]: 8 µg/mL (≈ 9.08 µM)
MIC (Prescottella equi): 16 µg/mL (≈ 18.2 µM)
MIC (Staphylococcus aureus [11]): 2 µg/mL (≈ 2.27 µM)
MIC (Staphylococcus aureus [3]): 4 µg/mL (≈ 4.54 µM)
MIC [4]: 8 µg/mL (≈ 9.08 µM)
MIC [12]: 0.25 µg/mL (≈ 0.284 µM)
MIC [13]: 0.25 µg/mL (≈ 0.284 µM)
MIC (Streptococcus pneumoniae [14]): 16 µg/mL (≈ 18.2 µM)
MIC (Escherichia coli [15]): > 128 µg/mL
MIC [16]: 0.5 µg/mL (≈ 0.567 µM)
MIC [5]: 0.25 µg/mL (≈ 0.284 µM)
MIC (Pseudomonas aeruginosa [6]): > 64 µg/mL
MIC (Streptococcus pneumoniae [7]): 8 µg/mL (≈ 9.08 µM)
MIC (Chlamydia trachomatis): 6 µg/mL (≈ 6.81 µM)
MIC (Lactococcus lactis): > 128 µg/mL
MIC [17]: 2 µg/mL (≈ 2.27 µM)
MIC [18]: 2 µg/mL (≈ 2.27 µM)
MIC (Helicobacter pylori): 4 µg/mL (≈ 4.54 µM)
MIC (Escherichia coli [19]): 4 µg/mL (≈ 4.54 µM)
MIC (Pseudomonas aeruginosa [8]): 8 µg/mL (≈ 9.08 µM)
Kd [20]: 979 nM
MIC (Pseudomonas aeruginosa [21]): > 128 µg/mL
MIC (Rhodococcus opacus): 2 µg/mL (≈ 2.27 µM)
MIC (Escherichia coli [9]): 2 µg/mL (≈ 2.27 µM)
MIC (Staphylococcus aureus [22]): > 128 µg/mL
MIC (Pseudomonas aeruginosa [23]): 8 µg/mL (≈ 9.08 µM)
MIC (Streptococcus pyogenes): 16 µg/mL (≈ 18.2 µM)

SMILES: CCCCCCCCCCCCCCCC(=O)N(C)[C@H](CO)C(=O)N[C@H](C)C(=O)NCC(=O)N(C)[C@@H]1C(=O)N[C@@H](C)C(=O)N[C@H](C(=O)O)Cc2ccc(O)c(c2)-c2cc1ccc2O[C@@H]1O[C@@H](C)[C@H](O)[C@@H](O)[C@H]1O
MIC (Streptococcus agalactiae): > 64 µg/mL
MIC (Staphylococcus aureus [1]): > 64 µg/mL
MIC (Escherichia coli [2]): > 64 µg/mL
MIC (Staphylococcus aureus [3]): 4 µg/mL (≈ 3.89 µM)
MIC [4]: 8 µg/mL (≈ 7.79 µM)
MIC [5]: 0.25 µg/mL (≈ 0.243 µM)
MIC (Pseudomonas aeruginosa [6]): > 64 µg/mL
MIC (Streptococcus pneumoniae [7]): 8 µg/mL (≈ 7.79 µM)
MIC (Pseudomonas aeruginosa [8]): 16 µg/mL (≈ 15.6 µM)
MIC (Escherichia coli [9]): 2 µg/mL (≈ 1.95 µM)

MIC [16]: 0.5 µg/mL (≈ 0.606 µM)
SMILES: CC(C)CCCCCCCCC(=O)N(C)[C@H](CO)C(=O)N[C@H](C)C(=O)NCC(=O)N(C)[C@@H]1C(=O)N[C@@H](C)C(=O)N[C@H](C(=O)O)Cc2ccc(O)c(c2)-c2cc1ccc2O [ARYLOMYCIN A2]
